According to ChEMBL document CHEMBL1201862, “PubChem BioAssay data set” (2004):
Active and inactive are the calls of the source.

Key:
fMet-Leu-Phe receptor = fMet-Leu-Phe receptor (Homo sapiens, UniProt P21462); assay: formyl peptide receptor binders – dose response (AID 519); assay type: functional
Genome polyprotein = Genome polyprotein (dengue virus type 2, UniProt P29990); assay: flavivirus cap methylation enzyme inhibition – biochemical, confirmation dose response, primary screen (AID 588689); assay type: functional
Sequence of Genome polyprotein (P29990 2492-3391 limits assumed): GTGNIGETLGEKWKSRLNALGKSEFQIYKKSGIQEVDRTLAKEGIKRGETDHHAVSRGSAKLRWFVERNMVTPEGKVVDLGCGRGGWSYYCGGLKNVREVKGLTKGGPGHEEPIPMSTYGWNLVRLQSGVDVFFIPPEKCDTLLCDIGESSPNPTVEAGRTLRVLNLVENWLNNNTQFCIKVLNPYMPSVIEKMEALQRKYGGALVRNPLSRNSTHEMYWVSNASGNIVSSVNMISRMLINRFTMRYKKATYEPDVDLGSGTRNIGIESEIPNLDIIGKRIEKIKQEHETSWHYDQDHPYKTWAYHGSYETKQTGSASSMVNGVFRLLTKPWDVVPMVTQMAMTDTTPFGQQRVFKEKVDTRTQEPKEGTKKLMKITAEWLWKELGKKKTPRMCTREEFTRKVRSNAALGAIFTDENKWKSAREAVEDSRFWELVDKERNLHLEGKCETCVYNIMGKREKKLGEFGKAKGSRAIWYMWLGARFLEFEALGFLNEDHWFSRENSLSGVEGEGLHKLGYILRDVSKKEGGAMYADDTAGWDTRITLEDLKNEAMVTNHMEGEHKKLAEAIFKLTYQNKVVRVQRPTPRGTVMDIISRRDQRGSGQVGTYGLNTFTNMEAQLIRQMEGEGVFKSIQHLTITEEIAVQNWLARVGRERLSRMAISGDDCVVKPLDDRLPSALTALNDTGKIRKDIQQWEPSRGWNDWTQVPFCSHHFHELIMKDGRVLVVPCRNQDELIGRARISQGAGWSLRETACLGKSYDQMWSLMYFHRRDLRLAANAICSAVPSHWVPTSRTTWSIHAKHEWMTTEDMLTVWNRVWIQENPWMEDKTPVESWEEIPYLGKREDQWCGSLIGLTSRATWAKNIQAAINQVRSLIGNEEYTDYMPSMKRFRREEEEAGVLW

Protein skinhead-1 = target: T1, Protein skinhead-1 (Caenorhabditis elegans, UniProt P34707); assay type: functional
T1 sequence (P34707 whole entry): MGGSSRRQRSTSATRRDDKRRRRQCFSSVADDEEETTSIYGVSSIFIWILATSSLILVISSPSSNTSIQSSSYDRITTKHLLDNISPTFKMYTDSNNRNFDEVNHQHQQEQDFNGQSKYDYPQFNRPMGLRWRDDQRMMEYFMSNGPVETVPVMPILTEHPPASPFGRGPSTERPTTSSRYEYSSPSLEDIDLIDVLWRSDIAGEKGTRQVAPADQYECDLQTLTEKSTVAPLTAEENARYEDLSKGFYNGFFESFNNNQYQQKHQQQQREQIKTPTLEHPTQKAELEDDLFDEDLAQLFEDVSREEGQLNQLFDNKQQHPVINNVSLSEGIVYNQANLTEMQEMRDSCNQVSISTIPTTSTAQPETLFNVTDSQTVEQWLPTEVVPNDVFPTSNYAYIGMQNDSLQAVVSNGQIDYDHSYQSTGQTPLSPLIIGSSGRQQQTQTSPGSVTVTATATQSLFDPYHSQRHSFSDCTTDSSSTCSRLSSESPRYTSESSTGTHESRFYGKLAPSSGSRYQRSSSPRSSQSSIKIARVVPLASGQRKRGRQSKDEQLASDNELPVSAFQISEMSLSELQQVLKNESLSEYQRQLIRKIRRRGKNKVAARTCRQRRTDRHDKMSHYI

[1] = target: T2, Histone-lysine N-methyltransferase NSD2 (Homo sapiens, UniProt O96028); assay type: biochemical
T2 sequence (O96028 whole entry): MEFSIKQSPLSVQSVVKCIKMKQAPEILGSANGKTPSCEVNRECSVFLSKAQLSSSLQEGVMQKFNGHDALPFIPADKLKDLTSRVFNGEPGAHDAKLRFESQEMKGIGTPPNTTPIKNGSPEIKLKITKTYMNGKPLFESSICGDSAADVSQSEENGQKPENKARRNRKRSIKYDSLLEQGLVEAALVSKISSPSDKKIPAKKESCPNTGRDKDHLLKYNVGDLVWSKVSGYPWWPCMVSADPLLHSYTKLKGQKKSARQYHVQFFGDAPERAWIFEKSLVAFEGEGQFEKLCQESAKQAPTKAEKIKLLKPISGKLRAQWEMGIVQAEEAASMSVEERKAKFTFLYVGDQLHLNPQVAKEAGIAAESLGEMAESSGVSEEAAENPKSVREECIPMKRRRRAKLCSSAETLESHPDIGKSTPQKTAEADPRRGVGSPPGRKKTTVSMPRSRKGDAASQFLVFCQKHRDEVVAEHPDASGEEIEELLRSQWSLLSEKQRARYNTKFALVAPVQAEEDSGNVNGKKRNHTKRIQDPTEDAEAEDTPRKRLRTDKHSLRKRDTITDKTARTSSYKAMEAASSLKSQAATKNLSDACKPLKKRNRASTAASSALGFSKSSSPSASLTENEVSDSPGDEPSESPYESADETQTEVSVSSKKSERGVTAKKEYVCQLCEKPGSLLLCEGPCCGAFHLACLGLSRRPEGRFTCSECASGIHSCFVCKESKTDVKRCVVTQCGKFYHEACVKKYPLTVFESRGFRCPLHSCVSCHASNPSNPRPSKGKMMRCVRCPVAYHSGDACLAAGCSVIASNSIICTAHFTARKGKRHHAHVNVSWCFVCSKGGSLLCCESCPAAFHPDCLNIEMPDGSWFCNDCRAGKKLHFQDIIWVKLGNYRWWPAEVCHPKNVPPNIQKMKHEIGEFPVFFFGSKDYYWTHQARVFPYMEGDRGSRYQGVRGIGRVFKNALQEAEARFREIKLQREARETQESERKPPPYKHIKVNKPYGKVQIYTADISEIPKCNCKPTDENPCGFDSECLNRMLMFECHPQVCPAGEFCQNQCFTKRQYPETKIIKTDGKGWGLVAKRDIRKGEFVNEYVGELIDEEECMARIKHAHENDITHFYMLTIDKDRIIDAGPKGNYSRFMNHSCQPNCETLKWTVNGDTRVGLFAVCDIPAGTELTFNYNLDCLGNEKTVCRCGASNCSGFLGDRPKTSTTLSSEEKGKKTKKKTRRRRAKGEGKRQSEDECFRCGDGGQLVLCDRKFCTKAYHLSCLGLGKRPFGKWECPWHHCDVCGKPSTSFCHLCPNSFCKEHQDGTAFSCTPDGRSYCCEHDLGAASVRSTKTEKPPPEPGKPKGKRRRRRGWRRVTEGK

[2] = target: Glucose-6-phosphate 1-dehydrogenase (Homo sapiens, UniProt P11413); assay: inhibition of Homo sapiens G6PD, dose series – biochemical, fluorescence, selectivity assay for P. falciparum G6PD inhibitor project, dose response (AID 504792); assay type: functional
Sequence of Glucose-6-phosphate 1-dehydrogenase (P11413 whole entry): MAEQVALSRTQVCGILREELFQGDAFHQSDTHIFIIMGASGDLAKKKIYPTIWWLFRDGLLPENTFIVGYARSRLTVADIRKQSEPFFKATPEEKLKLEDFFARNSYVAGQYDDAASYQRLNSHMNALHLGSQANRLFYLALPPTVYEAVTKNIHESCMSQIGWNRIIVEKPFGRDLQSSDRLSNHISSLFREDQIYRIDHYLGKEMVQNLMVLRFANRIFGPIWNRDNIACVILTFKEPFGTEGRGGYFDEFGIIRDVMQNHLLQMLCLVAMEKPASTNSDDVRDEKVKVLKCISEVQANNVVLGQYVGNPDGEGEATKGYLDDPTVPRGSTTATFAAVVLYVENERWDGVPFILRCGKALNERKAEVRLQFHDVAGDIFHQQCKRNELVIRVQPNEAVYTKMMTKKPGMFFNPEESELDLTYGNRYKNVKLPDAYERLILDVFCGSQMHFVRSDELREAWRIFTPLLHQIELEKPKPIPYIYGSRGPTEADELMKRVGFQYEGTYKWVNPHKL

[3] = target: Voltage-gated inwardly rectifying potassium channel KCNH2 (Homo sapiens, UniProt Q12809); conditions: Potency;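 note: confirmatory quantitative high-throughput screen measuring inhibition of hERG channel activity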
Sequence of Voltage-gated inwardly rectifying potassium channel KCNH2 (Q12809 whole entry): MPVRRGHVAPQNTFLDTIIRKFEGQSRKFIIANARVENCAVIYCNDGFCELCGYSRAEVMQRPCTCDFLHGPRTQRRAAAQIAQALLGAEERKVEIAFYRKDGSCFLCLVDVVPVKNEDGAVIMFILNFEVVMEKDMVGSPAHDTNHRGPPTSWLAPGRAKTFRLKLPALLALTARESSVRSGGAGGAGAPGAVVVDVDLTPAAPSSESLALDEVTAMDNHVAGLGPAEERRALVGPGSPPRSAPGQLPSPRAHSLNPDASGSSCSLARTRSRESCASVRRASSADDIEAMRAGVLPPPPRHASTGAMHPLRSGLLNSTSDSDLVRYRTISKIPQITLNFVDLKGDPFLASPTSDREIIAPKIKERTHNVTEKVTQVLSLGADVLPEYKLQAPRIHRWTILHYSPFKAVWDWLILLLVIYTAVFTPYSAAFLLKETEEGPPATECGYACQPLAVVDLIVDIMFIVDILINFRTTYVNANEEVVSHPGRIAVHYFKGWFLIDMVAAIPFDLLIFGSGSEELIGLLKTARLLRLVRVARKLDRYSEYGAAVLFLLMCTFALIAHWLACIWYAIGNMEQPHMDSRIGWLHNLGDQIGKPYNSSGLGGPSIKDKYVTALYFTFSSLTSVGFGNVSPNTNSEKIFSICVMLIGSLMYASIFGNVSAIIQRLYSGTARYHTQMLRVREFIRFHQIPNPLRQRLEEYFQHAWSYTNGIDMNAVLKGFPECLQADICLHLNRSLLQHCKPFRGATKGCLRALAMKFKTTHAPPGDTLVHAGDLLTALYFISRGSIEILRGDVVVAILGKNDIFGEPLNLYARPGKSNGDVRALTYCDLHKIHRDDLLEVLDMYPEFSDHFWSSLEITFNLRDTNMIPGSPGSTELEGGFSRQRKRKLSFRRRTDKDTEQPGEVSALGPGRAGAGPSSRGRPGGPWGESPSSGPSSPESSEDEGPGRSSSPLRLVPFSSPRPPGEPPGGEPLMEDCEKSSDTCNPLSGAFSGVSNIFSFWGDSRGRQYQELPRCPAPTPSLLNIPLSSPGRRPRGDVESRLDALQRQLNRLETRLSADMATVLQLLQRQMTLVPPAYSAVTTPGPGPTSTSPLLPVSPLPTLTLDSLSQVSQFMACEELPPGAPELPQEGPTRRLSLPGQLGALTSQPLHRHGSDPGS

Caspase-6 = target: T3, Caspase-6 (Homo sapiens, UniProt P55212); assay: inhibition of CASP6 peptide cleavage – biochemical, VEID-R110 fluorescence, cherry-pick, dose response (AID 720632)
T3 sequence (P55212 whole entry): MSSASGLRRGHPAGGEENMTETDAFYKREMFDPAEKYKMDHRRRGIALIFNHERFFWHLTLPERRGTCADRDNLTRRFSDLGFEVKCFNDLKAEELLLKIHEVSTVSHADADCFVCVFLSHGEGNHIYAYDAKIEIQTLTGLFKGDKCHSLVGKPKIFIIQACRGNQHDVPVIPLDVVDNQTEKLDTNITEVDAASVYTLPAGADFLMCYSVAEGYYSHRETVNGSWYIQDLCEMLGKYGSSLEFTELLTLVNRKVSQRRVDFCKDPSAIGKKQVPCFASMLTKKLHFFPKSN

Caspase-7 = Caspase-7 (Homo sapiens, UniProt P55210); assay: caspase-7 enzyme inhibition, selectivity check – biochemical, DEVD-R110 fluorescence, cherry-pick, selectivity assay for caspase-6 inhibitor project, dose response (AID 743295); assay type: functional
Sequence of Caspase-7 (P55210 24-198 limits assumed): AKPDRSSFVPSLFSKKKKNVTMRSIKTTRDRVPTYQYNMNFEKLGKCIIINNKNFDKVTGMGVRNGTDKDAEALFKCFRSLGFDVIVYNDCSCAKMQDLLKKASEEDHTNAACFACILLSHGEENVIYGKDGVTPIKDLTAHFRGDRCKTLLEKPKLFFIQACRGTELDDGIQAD
Sequence of Caspase-7 (P55210 207-303 limits assumed): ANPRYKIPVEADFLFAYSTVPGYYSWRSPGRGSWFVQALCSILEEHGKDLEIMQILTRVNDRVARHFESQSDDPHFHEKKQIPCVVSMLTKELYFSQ

[4] = target: T4, Sentrin-specific protease 6 (Homo sapiens, UniProt Q9GZR1); assay type: functional;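 note: Luminescence-based dose-response confirmatory assay of SENP6 inhibition, following up an ultra-high-throughput screen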
T4 sequence (Q9GZR1 whole entry): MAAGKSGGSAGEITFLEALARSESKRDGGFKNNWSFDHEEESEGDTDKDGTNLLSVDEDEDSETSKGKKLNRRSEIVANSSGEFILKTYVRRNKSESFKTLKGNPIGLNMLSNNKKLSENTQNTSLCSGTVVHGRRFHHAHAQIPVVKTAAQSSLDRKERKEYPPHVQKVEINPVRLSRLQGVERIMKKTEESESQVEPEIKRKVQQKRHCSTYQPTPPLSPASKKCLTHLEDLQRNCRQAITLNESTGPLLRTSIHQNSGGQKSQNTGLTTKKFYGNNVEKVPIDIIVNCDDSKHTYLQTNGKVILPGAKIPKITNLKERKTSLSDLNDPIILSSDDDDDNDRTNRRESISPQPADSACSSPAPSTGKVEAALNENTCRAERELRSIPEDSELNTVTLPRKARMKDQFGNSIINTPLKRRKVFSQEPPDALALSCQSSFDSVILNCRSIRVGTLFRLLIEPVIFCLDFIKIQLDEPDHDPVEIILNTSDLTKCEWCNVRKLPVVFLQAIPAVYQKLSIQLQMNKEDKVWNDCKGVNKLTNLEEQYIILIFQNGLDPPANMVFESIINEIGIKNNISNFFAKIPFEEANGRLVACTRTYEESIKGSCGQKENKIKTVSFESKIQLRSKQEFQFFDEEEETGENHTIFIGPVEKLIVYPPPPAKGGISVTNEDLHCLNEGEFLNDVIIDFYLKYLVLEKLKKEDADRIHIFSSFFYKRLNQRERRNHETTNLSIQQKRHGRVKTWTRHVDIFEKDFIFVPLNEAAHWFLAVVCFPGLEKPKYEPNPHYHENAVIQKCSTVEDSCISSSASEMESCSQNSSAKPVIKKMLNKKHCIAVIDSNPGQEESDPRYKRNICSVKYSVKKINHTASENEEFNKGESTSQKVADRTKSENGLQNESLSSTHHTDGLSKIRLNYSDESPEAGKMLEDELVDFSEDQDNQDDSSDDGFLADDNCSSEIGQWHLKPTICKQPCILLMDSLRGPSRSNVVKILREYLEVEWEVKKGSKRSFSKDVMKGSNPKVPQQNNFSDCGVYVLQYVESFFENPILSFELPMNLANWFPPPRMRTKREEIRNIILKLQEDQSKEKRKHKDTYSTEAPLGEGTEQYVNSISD

[5] = target: T5, Sentrin-specific protease 7 (Homo sapiens, UniProt Q9BQF6); assay type: functional;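 note: Luminescence-based dose-response confirmation of ultra-high-throughput screening hits, measuring inhibition of SENP7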
T5 sequence (Q9BQF6 whole entry): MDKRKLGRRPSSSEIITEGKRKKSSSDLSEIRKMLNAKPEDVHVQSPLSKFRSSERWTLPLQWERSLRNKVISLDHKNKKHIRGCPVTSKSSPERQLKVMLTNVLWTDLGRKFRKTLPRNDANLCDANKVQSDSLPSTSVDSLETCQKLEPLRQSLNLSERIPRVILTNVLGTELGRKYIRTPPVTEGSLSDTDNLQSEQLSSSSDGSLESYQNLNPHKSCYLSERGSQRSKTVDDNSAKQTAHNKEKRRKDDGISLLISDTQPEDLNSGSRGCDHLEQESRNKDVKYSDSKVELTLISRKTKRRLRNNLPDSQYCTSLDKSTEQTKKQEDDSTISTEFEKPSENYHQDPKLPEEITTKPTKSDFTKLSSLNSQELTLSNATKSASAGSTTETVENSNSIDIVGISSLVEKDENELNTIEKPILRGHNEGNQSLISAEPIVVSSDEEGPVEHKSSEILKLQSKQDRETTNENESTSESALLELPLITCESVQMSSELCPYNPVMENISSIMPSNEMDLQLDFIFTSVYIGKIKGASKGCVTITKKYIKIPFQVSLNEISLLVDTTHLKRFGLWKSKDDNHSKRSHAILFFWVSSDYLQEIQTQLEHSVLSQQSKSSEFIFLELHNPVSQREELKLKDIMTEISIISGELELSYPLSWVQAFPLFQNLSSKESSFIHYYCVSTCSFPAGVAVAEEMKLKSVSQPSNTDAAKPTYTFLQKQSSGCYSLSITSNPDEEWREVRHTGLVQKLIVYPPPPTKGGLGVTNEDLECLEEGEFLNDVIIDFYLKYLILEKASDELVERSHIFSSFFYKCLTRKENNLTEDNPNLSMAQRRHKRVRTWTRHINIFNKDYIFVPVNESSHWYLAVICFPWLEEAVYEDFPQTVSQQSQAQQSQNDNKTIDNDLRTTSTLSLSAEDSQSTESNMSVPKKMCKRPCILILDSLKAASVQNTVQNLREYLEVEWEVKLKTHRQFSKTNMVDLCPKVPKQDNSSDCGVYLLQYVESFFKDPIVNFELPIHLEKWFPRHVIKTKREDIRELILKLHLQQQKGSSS

[6] = target: T6, Sentrin-specific protease 8 (Homo sapiens, UniProt Q96LD8); assay type: functional;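 note: luminescence read-out of SENP8 inhibition, dose-response confirmation following an ultra-high-throughput screen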
T6 sequence (Q96LD8 whole entry): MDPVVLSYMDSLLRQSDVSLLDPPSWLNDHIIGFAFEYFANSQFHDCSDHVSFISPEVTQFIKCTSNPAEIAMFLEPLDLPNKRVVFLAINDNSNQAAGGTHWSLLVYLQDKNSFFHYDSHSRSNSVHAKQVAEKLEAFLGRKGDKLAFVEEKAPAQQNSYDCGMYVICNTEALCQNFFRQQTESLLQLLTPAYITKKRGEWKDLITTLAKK

Caspase-3 = target: T7, Caspase-3 (Homo sapiens, UniProt P42574); assay type: functional;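 note: Dose-response selectivity test against caspase-3 for candidate inhibitors of sentrin-specific proteases (SENPs)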
T7 sequence (P42574 whole entry): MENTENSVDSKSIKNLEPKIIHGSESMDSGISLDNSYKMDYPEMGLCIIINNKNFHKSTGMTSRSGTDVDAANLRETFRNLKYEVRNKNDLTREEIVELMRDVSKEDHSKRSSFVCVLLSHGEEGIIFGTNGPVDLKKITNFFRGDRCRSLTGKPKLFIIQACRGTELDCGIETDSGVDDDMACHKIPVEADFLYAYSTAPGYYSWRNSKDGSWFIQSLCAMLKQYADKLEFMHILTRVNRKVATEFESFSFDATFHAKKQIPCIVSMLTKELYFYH

[7] = target: T8, Oxysterols receptor LXR-beta (Homo sapiens, UniProt P55055); assay type: functional, cell-based;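 note: agonist activity at LXR measured by a cell-based luminescence readout across a dose range, run as a counterscreen for daf-12 agonists; HEK293 cells with Gal4-LXR fusion and GAL4-driven luciferase reporter; potency for activation of Gal4-LXR reporter so compounds are agonists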
T8 sequence (P55055 whole entry): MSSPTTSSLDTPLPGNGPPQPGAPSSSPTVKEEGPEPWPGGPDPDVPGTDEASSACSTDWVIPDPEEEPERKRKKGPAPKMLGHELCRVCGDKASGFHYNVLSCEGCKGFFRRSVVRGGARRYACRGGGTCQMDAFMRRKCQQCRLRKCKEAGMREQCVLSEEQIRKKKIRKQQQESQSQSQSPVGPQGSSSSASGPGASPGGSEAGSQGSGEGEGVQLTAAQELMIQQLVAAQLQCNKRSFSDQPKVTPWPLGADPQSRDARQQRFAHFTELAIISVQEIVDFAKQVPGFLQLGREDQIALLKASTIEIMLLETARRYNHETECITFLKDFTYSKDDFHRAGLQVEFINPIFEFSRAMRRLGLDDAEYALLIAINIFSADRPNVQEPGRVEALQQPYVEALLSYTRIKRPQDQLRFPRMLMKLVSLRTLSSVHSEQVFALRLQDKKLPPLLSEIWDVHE

Sequence of fMet-Leu-Phe receptor (P21462 whole entry): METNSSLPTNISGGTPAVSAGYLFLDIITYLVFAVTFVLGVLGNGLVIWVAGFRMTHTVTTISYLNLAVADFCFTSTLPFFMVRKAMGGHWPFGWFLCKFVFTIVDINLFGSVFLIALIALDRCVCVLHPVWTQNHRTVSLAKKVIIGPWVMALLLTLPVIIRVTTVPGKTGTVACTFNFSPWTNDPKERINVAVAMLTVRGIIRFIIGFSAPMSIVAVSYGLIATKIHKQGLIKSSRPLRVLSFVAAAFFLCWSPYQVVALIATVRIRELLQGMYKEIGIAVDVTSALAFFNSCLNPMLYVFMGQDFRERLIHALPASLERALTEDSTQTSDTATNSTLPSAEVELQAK

SMILES: Cc1ccc(C(=O)C2=C(O)C(=O)N(CC(C)O)C2c2ccc(N(C)C)cc2)cc1 (centres undefined)
- Ki (fMet-Leu-Phe receptor): > 66.7 µM (inactive)

SMILES: Oc1cc2c(cc1O)[C@H]1c3ccc(O)c(O)c3OC[C@@]1(O)C2
- IC50 (Genome polyprotein): 22.5 µM (active)
- IC50 (Protein skinhead-1): > 100 µM (inactive)
- AC50 [1]: 1.53 µM (active)
- IC50 [2]: 67.6 µM (inactive)
- AC50 [3]: 22.4 µM (inconclusive)
- AC50 (Caspase-6): 3.95 µM (active)
- AC50 (Caspase-7): 68.5 µM (active)

SMILES: C=CCOc1cccc(C2C(C(=O)c3ccco3)=C(O)C(=O)N2CCN2CCOCC2)c1 (centres undefined)
- Ki (fMet-Leu-Phe receptor): > 66.7 µM (inactive)

SMILES: Cc1ccc(/C=N/N=C/c2ccc(C)s2)s1
- IC50 [4]: 18.7 µM (active)
- IC50 [5]: 5.6 µM (active)
- IC50 [6]: 21.9 µM (active)
- IC50 (Caspase-3): 18.5 µM (active)
- EC50 [7]: > 67.5 µM (inactive)
